target: T1, Mucosa-associated lymphoid tissue lymphoma translocation protein 1 (Homo sapiens, UniProt Q9UDY8); experiment: MALT1 Protease Assay 2
T1 sequence (Q9UDY8 whole entry): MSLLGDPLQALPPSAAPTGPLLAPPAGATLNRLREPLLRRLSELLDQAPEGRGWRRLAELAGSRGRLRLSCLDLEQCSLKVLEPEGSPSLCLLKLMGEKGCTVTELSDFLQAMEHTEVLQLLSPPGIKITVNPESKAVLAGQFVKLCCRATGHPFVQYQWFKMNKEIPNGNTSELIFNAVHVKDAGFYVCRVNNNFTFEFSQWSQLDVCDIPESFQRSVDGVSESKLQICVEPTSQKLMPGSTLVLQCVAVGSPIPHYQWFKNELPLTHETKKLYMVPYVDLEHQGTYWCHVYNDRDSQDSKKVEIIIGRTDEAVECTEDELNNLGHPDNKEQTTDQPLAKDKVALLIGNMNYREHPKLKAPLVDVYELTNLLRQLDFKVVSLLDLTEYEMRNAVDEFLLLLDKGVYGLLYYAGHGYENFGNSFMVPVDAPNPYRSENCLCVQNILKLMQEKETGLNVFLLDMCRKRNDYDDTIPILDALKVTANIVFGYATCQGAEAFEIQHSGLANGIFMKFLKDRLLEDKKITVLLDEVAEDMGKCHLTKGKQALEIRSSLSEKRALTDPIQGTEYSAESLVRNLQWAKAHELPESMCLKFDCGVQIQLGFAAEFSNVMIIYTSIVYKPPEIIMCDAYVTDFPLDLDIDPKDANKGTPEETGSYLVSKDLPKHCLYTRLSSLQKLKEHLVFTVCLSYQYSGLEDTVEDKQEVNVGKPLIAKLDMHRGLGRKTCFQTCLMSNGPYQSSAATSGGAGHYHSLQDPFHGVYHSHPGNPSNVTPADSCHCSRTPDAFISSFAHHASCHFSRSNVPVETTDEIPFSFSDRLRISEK
Procedure: Test compounds were dissolved in 100% DMSO at stock of 10 mM, with final DMSO concentration 0.1%. Test compounds were pre-incubated with MALT1 protein for 2 h at room temperature.

Compound	IC50 [nM]
C[S@+]([O-])c1ccc(NC(=O)N2C[C@@](C)(C(F)(F)F)c3c2cnc2cc(Cl)nn32)cc1C(F)F [US20240018157, Example 116]	< 10
Cc1cn2ncc3c(c2n1)[C@](C)(C(F)(F)F)CN3C(=O)Nc1cnnc(C(F)F)c1 [US20240018157, Example 119]	10 to 100
CN(C)Cc1cnn(-c2ncc(NC(=O)N3C[C@@](C)(C(F)(F)F)c4c3cnc3cc(Cl)nn43)cc2Cl)n1 [US20240018157, Example 29]	10 to 100
C[C@@]1(C(F)(F)F)CN(C(=O)Nc2cnc(-n3nccn3)c(C#N)c2)c2cnc3cc(F)nn3c21 [US20240018157, Example 91]	< 10
C[C@H](O)c1cnn(-c2ncc(NC(=O)N3C[C@@](C)(C(F)(F)F)c4c3cnc3cc(Cl)nn43)cc2Cl)n1 [US20240018157, Example 76]	< 10
C[C@@]1(C(F)(F)F)CN(C(=O)Nc2cnc(C3(O)CC3)c(Cl)c2)c2cnc3cc(Cl)nn3c21 [US20240018157, Example 67]	100 to 1000
C[C@@]1(C(F)(F)F)CN(C(=O)Nc2cnc(-n3ccnn3)c(C(F)F)c2)c2cnc3cc(Cl)nn3c21 [US20240018157, Example 36]	< 10
COc1c(Cl)cc(NC(=O)N2C[C@@](C)(C(F)(F)F)c3c2cnc2cc(Cl)nn32)nc1O[C@H]1CCNC1 [US20240018157, Example 63]	< 10
C[C@@]1(C(F)(F)F)CN(C(=O)Nc2cnc(-n3cc(CO)cn3)c(Cl)c2)c2cnc3cc(Cl)nn3c21 [US20240018157, Example 57]	< 10
C[C@@]1(C(F)(F)F)CN(C(=O)Nc2cc(O[C@H]3CCNC3)nc(C(F)(F)F)c2)c2cnc3cc(Cl)nn3c21 [US20240018157, Example 75]	10 to 100
COc1ncc(NC(=O)N2C[C@@](C)(C(F)(F)F)c3c2cnc2cc(Cl)nn32)cc1Cl [US20240018157, Example 18]	< 10
COC[C@]1(C(F)(F)F)CN(C(=O)Nc2cnc(-n3nccn3)c(Cl)c2)c2cnc3cc(Cl)nn3c21 [US20240018157, Example 98]	10 to 100
C[C@H](O)c1cc(NC(=O)N2C[C@@](C)(C(F)(F)F)c3c2cnc2cc(Cl)nn32)cc(C(F)(F)F)n1 [US20240018157, Example 68]	10 to 100
C[C@@]1(C(F)(F)F)CN(C(=O)Nc2cnc(-n3nccn3)c(C(F)F)c2)c2cnc3cc(F)nn3c21 [US20240018157, Example 104]	< 10
C[C@]1(C(F)(F)F)CN(C(=O)Nc2cnc(-n3nccn3)c(C(F)F)c2)c2cnc3cc(F)nn3c21 [US20240018157, Example 105]	100 to 1000
C[C@@]1(C(F)(F)F)CN(C(=O)Nc2ccnc(C(F)(F)F)c2)c2cnc3cc(Cl)nn3c21 [US20240018157, Example 27]	< 10
COc1cnn(-c2ncc(NC(=O)N3C[C@@](C)(C(F)(F)F)c4c3cnc3cc(Cl)nn43)cc2Cl)n1 [US20240018157, Example 92]	< 10
C[C@@]1(C(F)(F)F)CN(C(=O)Nc2cnc(C3(O)CCC3)c(Cl)c2)c2cnc3cc(Cl)nn3c21 [US20240018157, Example 168]	> 1000

Next, values leading:

IC50 [nM]	Compound
> 1000	CN1CC(Oc2cc(C(F)F)cc(NC(=O)N3C[C@@](C)(C(F)(F)F)c4c3cnc3cc(Cl)nn43)n2)C1 [US20240018157, Example 178]
> 1000	C[C@@]1(C(F)(F)F)CN(C(=O)NC2CCC3(CCCO3)CC2)c2cnc3cc(Cl)nn3c21 (stereo partly drawn) [US20240018157, Example 174]
> 1000	C[C@]1(C(F)(F)F)CN(C(=O)Nc2cnnc(C(F)F)c2)c2cnc3c(F)c(Cl)nn3c21 [US20240018157, Example 137]
< 10	CC(O)c1cnn(-c2ncc(NC(=O)N3C[C@@](C)(C(F)(F)F)c4c3cnc3cc(F)nn43)cc2C(F)F)n1 (stereo partly drawn) [US20240018157, Example 191]
10 to 100	Cc1cn2ncc3c(c2n1)[C@@](C)(C(F)(F)F)CN3C(=O)Nc1cnc(-n2nccn2)c(Cl)c1 [US20240018157, Example 153]
10 to 100	Cn1cc([C@@]2(C(F)(F)F)CN(C(=O)Nc3cnnc(C(F)F)c3)c3cnc4cc(Cl)nn4c32)cn1 [US20240018157, Example 211]
> 1000	C[C@]1(C(F)(F)F)CN(C(=O)Nc2cnnc(C(F)F)c2)c2cnc3c(F)c(F)nn3c21 [US20240018157, Example 141]
100 to 1000	CO[C@]1(C(F)(F)F)CN(C(=O)Nc2cnc(-n3nccn3)c(Cl)c2)c2cnc3cc(Cl)nn3c21 [US20240018157, Example 135]
> 1000	CNc1cc(NC(=O)N2C[C@@](C)(C(F)(F)F)c3c2cnc2cc(Cl)nn32)cnc1-n1ccnn1 [US20240018157, Example 187]
> 1000	C[C@@]1(C(F)(F)F)CN(C(=O)n2nc(C(F)(F)F)cc2N)c2cnc3cc(Cl)nn3c21 [US20240018157, Example 175]
> 1000	C[C@@]1(C(F)(F)F)CN(C(=O)N[C@@H]2CCCC[C@H]2O)c2cnc3cc(Cl)nn3c21 [US20240018157, Example 171]
< 10	C[C@@H](O)c1cnn(-c2ncc(NC(=O)N3C[C@@](C)(C(F)(F)F)c4c3cnc3cc(Cl)nn43)cc2C(F)F)n1 [US20240018157, Example 127]
> 1000	CN1CCOC(c2ncc(NC(=O)N3C[C@@](C)(C(F)(F)F)c4c3cnc3cc(Cl)nn43)cc2Cl)C1 (stereo partly drawn) [US20240018157, Example 167]
> 1000	CN1CC(n2nc(NC(=O)N3C[C@@](C)(C(F)(F)F)c4c3cnc3cc(Cl)nn43)cc2Cl)C1 [US20240018157, Example 163]
> 1000	CCc1nn2c3c(cnc2c1N)N(C(=O)Nc1cnc(-n2nccn2)c(Cl)c1)C[C@@]3(C)C(F)(F)F [US20240018157, Example 158]
100 to 1000	Cc1nnc(C(F)F)cc1NC(=O)N1C[C@@](C)(C(F)(F)F)c2c1cnc1cc(F)nn21 [US20240018157, Example 161]
10 to 100	CCc1cc2ncc3c(n2n1)[C@](C)(C(F)(F)F)CN3C(=O)Nc1cnnc(C(F)F)c1 [US20240018157, Example 195]
< 10	C[C@@]1(C(F)(F)F)CN(C(=O)Nc2cnc(C(=O)NC3CC3)c(C(F)F)c2)c2cnc3cc(Cl)nn3c21 [US20240018157, Example 150]
10 to 100	C[C@@]1(C(F)(F)F)CN(C(=O)Nc2cnnc(C(F)F)c2)c2cnc3c(F)c(F)nn3c21 [US20240018157, Example 142]
10 to 100	C[C@H](O)c1cnnn1-c1ncc(NC(=O)N2C[C@@](C)(C(F)(F)F)c3c2cnc2cc(Cl)nn32)cc1C(F)F [US20240018157, Example 184]
< 10	C[C@@]1(C(F)(F)F)CN(C(=O)Nc2cnc(-n3nccn3)c(Cl)c2)c2cnc3c(F)cnn3c21 [US20240018157, Example 146]
> 1000	C[C@@]1(C(F)(F)F)CN(C(=O)N[C@@H]2CCC(F)(F)C2)c2cnc3cc(Cl)nn3c21 [US20240018157, Example 165]
> 1000	C[C@@]1(C(F)(F)F)CN(C(=O)Nc2cnnc(C(F)F)c2)c2cnc3cc(CC(F)(F)F)nn3c21 [US20240018157, Example 197]
> 1000	Cc1cn2ncc3c(c2n1)C(C)(C)CN3C(=O)Nc1cnc(C(=O)N(C)C)c(Cl)c1 [US20240018157, Example 206]
100 to 1000	CCc1nn2c3c(cnc2c1N)N(C(=O)Nc1cnc(-n2nccn2)c(Cl)c1)C[C@]3(C)C(F)(F)F [US20240018157, Example 157]

— BindingDB's records for patent US20240018157 (Schrödinger, 2024)
